Measured values taken from patent publication US8044073B2, “Aminobenzimidazoles and benzimidazoles as inhibitors of respiratory syncytial virus replication” (Tibotec Pharmaceuticals, priority 2003, dated 2011).

Each compound was assayed on Respiratory Syncytial Virus (assay: In vitro screening for activity against RSV (tetrazolium-based colorimetric assay, protection against viral cytopathology)). Conditions: Table 1; RSV in HeLa cells, MTT, seven days after infection; pEC50 = -log of EC50 in molar units.
Type: cell-based
From the text: The percent protection against cytopathology caused by viruses (antiviral activity or EC50) achieved by tested compounds and their cytotoxicity (CC50) are both calculated from dose-response curves. The selectivity of the antiviral effect is represented by the selectivity index (SI), calculated by dividing the CC50 (cytotoxic dose for 50% of the cells) by the EC50 (antiviral activity for 50% of the cells). The tables in the above experimental part list the category to which each of the prepared compounds belong: Compounds belonging to activity category “A” have a pEC50 (−log of EC50 when expressed in molar units) equal to or more than 7. Compounds belonging to activity category “B” have a pEC50 value between 6 and 7.
Automated tetrazolium-based colorimetric assays were used for determination of EC50 and CC50 of test compounds. Flat-bottom, 96-well plastic microtiter trays were filled with 180 μl of Eagle's Basal Medium, supplemented with 5% FCS (0% for FLU) and 20 mM Hepes buffer. Subsequently, stock solutions (7.8× final test concentration) of compounds were added in 45 μl volumes to a series of triplicate wells so as to allow simultaneous evaluation of their effects on virus- and mock-infected cells. Five five-fold dilutions were made directly in the microtiter trays using a robot system. Untreated virus controls, and HeLa cell controls were included in each test. Approximately 100 TCID50 of Respiratory Syncytial Virus was added to two of the three rows in a volume of 50 μl. The same volume of medium was added to the third row to measure the cytotoxicity of the compounds at the same concentrations as those used to measure the antiviral activity. After two hours of incubation, a suspension (4×10^5 cells/ml) of HeLa cells was added to all wells in a volume of 50 μl. The cultures were incubated at 37° C. in a 5% CO2 atmosphere. Seven days after infection the cytotoxicity and the antiviral activity was examined spectrophotometrically. To each well of the microtiter tray, 25 μl of a solution of MTT (3-(4,5-dimethylthiazol-2-yl)-2,5-diphenyltetrazolium bromide) was added. The trays were further incubated at 37° C. for 2 hours, after which the medium was removed from each cup. Solubilization of the formazan crystals was achieved by adding 100 μl 2-propanol. Complete dissolution of the formazan crystals were obtained after the trays have been placed on a plate shaker for 10 min. Finally, the absorbances were read in an eight-channel computer-controlled photometer (Multiskan MCC, Flow Laboratories) at two wavelengths (540 and 690 nm). The absorbance measured at 690 nm was automatically subtracted from the absorbance at 540 nm, so as to eliminate the effects of non-specific absorption.
The percent protection against cytopathology caused by viruses (antiviral activity or EC50) achieved by tested compounds and their cytotoxicity (CC50) were both calculated from dose-response curves. The selectivity of the antiviral effect is represented by the selectivity index (SI), calculated by dividing the CC50 (cytotoxic dose for 50% of the cells) by the EC50 (antiviral activity for 50% of the cells).

SMILES | Activity
Cc1ccc(O)c(Cn2c(N)nc3ccc(CNc4cc(C(C)(C)C)cc(C(C)(C)C)c4)cc32)n1 [Compound 76] | 6.8
Cc1ccc(O)c(Cn2c(N)nc3ccc(CNc4cccc(OCc5ccccc5)c4)cc32)n1 [Compound 77] | 6.8
Cc1ccc(O)c(Cn2c(N)nc3ccc(CNc4cc(C(=O)O)cc(C(F)(F)F)c4)cc32)n1 [Compound 78] | 6.6
Cc1ccc(O)c(Cn2c(N)nc3ccc(CNc4cccc(Cc5ccccc5)c4)cc32)n1 [Compound 79] | 6.4
Cc1ccc(O)c(Cn2c(N)nc3ccc(CNc4cc(OCC(F)(F)F)cc(OCC(F)(F)F)c4)cc32)n1 [Compound 80] | 6.2
Cc1ccc(O)c(Cn2c(N)nc3ccc(CNc4ccccc4CCO)cc32)n1 [Compound 81] | 9.4
Cc1ccc(O)c(Cn2c(N)nc3ccc(CNc4cccc(C)c4CCO)cc32)n1 [Compound 84] | 9
Cc1ccc(O)c(Cn2c(N)nc3ccc(CNc4ccc(C(N)=O)cc4)cc32)n1 [Compound 85] | 8.4
Cc1ccc(O)c(Cn2c(N)nc3ccc(CNc4cccc(C)c4CO)cc32)n1 [Compound 87] | 8.2
Cc1ccc(O)c(Cn2c(N)nc3ccc(CNc4cc(C#N)ccc4CCO)cc32)n1 [Compound 89] | 10.6
Cc1ccc(OCCO)c(NCc2ccc3nc(N)n(Cc4nc(C)ccc4O)c3c2)c1 [Compound 91] | 10.5
C#Cc1ccc(CCO)c(NCc2ccc3nc(N)n(Cc4nc(C)ccc4O)c3c2)c1 [Compound 92] | 10.4

Same assay, conditions: Table 2; RSV in HeLa cells, MTT, seven days after infection; pEC50 = -log of EC50 in molar units

SMILES | Activity
Cc1ccc(O)c(Cn2c(N)nc3cc(CNc4ccccc4)ccc32)n1 [Compound 116] | 7.0
Cc1cc(C)cc(NCc2ccc3c(c2)nc(N)n3Cc2nc(C)ccc2O)c1 [Compound 117] | 6.8
CC(=O)c1cccc(NCc2ccc3c(c2)nc(N)n3Cc2nc(C)ccc2O)c1 [Compound 118] | 6.4
Cc1ccc(O)c(Cn2c(N)nc3cc(CNc4cccc(C)c4C)ccc32)n1 [Compound 119] | 6.4
Cc1cccc(NCc2ccc3c(c2)nc(N)n3Cc2nc(C)ccc2O)c1 [Compound 120] | 6.4
Cc1ccc(O)c(Cn2c(N)nc3cc(CNc4cc(Cl)cc(Cl)c4)ccc32)n1 [Compound 121] | 5.8
Cc1ccc(O)c(Cn2c(N)nc3cc(CNc4cccc(Cl)c4)ccc32)n1 [Compound 122] | <4.0
Cc1ccc(O)c(Cn2c(N)nc3cc(CNc4cccc5cccnc45)ccc32)n1 [Compound 123] | <4.0
Cc1ccc(O)c(Cn2c(N)nc3cc(CNc4cccc(F)c4)ccc32)n1 [Compound 124] | <4.0
CCc1cccc(NCc2ccc3c(c2)nc(N)n3Cc2nc(C)ccc2O)c1 [Compound 125] | <4.0
Cc1ccc(O)c(Cn2c(N)nc3cc(CNc4cccc(Br)c4)ccc32)n1 [Compound 126] | <4.0
C#Cc1cccc(NCc2ccc3c(c2)nc(N)n3Cc2nc(C)ccc2O)c1 [Compound 127] | <4.0

Same assay, conditions: Table 3; RSV in HeLa cells, MTT, seven days after infection; pEC50 = -log of EC50 in molar units

SMILES | Activity
Cc1ccc(O)c(Cn2c(N)nc3ccc(CN(Cc4ccccc4)c4ccccc4)cc32)n1 [Compound 133] | 7.5
Cc1ccc(O)c(Cn2c(N)nc3ccc(CN(C)c4ccccc4CCO)cc32)n1 [Compound 166] | 6.8
Cc1ccc(O)c(Cn2c(N)nc3ccc(CN(CCC(N)=O)c4cc(Cl)cc(Cl)c4)cc32)n1 [Compound 167] | 9.4
Cc1cccc(N(CCCS(N)(=O)=O)Cc2ccc3nc(N)n(Cc4nc(C)ccc4O)c3c2)c1 [Compound 168] | 9.3
Cc1cccc(N(CCOCCO)Cc2ccc3nc(N)n(Cc4nc(C)ccc4O)c3c2)c1.Cl [Compound 171] | 8.9
CNC(=O)CCN(Cc1ccc2nc(N)n(Cc3nc(C)ccc3O)c2c1)c1cccc(C)c1.Cl [Compound 172] | 8.8
Cc1ccc(O)c(Cn2c(N)nc3ccc(CN(CCO)c4cnc5ccccc5c4)cc32)n1 [Compound 175] | 8.5
Cc1cccc(N(Cc2ccc3nc(N)n(Cc4nc(C)ccc4O)c3c2)Cc2c[nH]cn2)c1 [Compound 176] | 8.3
Cc1cccc(N(Cc2ccc3nc(N)n(Cc4nc(C)ccc4O)c3c2)CC(O)CO)c1 (centres unmarked) [Compound 180] | 9.3

Same assay, conditions: Table 4; RSV in HeLa cells, MTT, seven days after infection; pEC50 = -log of EC50 in molar units

SMILES | Activity
Cc1cc(C)cc(NCc2ccc3ncn(Cc4nc(C)ccc4O)c3c2)c1 [Compound 184] | 6.7
Cc1ccc(O)c(Cn2cnc3ccc(CNc4cc(Cl)cc(Cl)c4)cc32)n1 [Compound 185] | 6.1
CCc1cccc(NCc2ccc3ncn(Cc4nc(C)ccc4O)c3c2)c1 [Compound 187] | 5.7
Cc1ccc(O)c(Cn2cnc3ccc(/C=C/C#N)cc32)n1 [Compound 189] | 4.8
Cc1ccc(O)c(Cn2cnc3ccc(NC(=O)c4ccccc4)cc32)n1 [Compound 190] | <4.0
Cc1ccc(CCCO)c(NCc2ccc3ncn(Cc4nc(C)ccc4O)c3c2)c1 [Compound 191] | 7.9
Cc1ccc(CCO)c(NCc2ccc3ncn(Cc4nc(C)ccc4O)c3c2)c1 [Compound 192] | 7.8
Cc1cccc(N(CCO)Cc2ccc3ncn(Cc4nc(C)ccc4O)c3c2)c1 [Compound 193] | 6.3

Same assay, conditions: Table 5a; RSV in HeLa cells, MTT, seven days after infection; pEC50 = -log of EC50 in molar units

SMILES | Activity
Cc1ccc(O)c(Cn2c(N)nc3ccc(CCCN)cc32)n1.Cl [Compound 196] | 7.7
Cc1ccc(O)c(Cn2c(N)nc3ccc(CCC#N)cc32)n1 [Compound 198] | 6.8
Cc1cc(C)c2nc(N)n(Cc3nc(C)ccc3O)c2c1 [Compound 199] | 6.8
CNc1nc2ccc(CO)cc2n1Cc1nc(C)ccc1O [Compound 200] | 4.9
CNc1nc2cc(CO)ccc2n1Cc1nc(C)ccc1O [Compound 202] | <4.0

Same assay, conditions: Table 5b; RSV in HeLa cells, MTT, seven days after infection; pEC50 = -log of EC50 in molar units

SMILES | Activity
Cc1ccc(CCCO)c(NCc2ccc3nc(N)n(Cc4cccc5cccnc45)c3c2)c1 [Compound 208] | 7.9
COc1ccc(C)nc1Cn1c(N)nc2ccc(CNc3cc(C)ccc3CCCO)cc21 [Compound 209] | 7.8
Cc1ccc(CCCO)c(NCc2ccc3nc(N)n(Cc4cccc(Br)n4)c3c2)c1 [Compound 212] | 7.5
Cc1ccc(CCCO)c(NCc2ccc3nc(N)n(Cc4cccc5cccnc45)c3c2)c1 [Compound 214] | 7.3
Cc1ccc(CCCO)c(NCc2ccc3nc(N)n(Cc4nc(C)c(C)nc4C)c3c2)c1 [Compound 218] | 6.1
Cc1ccc(CCCO)c(NCc2ccc3nc(N)n(Cc4ccc(F)cc4)c3c2)c1 [Compound 219] | 5.3
Cc1cccc(N(CCCO)Cc2ccc3nc(N)n(Cc4cccc5cccnc45)c3c2)c1 [Compound 225] | <4
Cc1ccc(CCCO)c(NCc2ccc3nc(N)n(Cc4cccc(Br)n4)c3c2)c1 [Compound 228] | <4
COc1ccc(C)nc1Cn1c(N)nc2ccc(CNc3cc(C)ccc3CCCO)cc21 [Compound 234] | <4
Cc1ccc(CCCO)c(NCc2ccc3nc(N)n(Cc4cccc5c4ncn5C)c3c2)c1 [Compound 235] | <4

Same assay, conditions: Table 6; numeric activity values, pEC50 (−log of EC50 in molar units)

SMILES | Activity
Cc1ccc(O)c(Cn2cnc3cc(CNCCCC4CCC(=O)N4)ccc32)n1 (centres unmarked) [Compound 241] | 4.5

Same assay, conditions: human respiratory syncytial virus, 168 h; Table 4; RSV in HeLa cells, MTT, seven days after infection; pEC50 = -log of EC50 in molar units; read-out: Activity (converted)

SMILES | EC50
Cc1ccc(O)c(Cn2cnc3ccc(CNc4cccc(Cl)c4)cc32)n1 [Compound 186, 2-{6-[(3-chloro-phenylamino)-methyl]-benzoimidazol-1-ylmethyl}-6-methyl-pyridin-3-ol] | 1.58 µM

Same assay, conditions: human respiratory syncytial virus, 168 h; Table 5b; RSV in HeLa cells, MTT, seven days after infection; pEC50 = -log of EC50 in molar units; read-out: Activity (converted)

SMILES | EC50
Nc1nc2ccc(CO)cc2n1Cc1cccc2cccnc12 [Compound 222, (2-amino-3-quinolin-8-ylmethyl-3H-benzoimidazol-5-yl)-methanol] | 39.8 µM
